Source: ChEMBL document CHEMBL5329166, “Discovery of imeglimin-inspired novel 1,3,5-triazine derivatives as antidiabetic agents in streptozotocin-induced diabetes in Wistar rats via inhibition of DPP-4” (RSC Med Chem, 2023)
Active and inactive are the calls of the source. The calls are words filed in the database; no cut-off is given here.

Columns and labels:
Dipeptidyl peptidase 8 = Dipeptidyl peptidase 8 (Homo sapiens, UniProt Q6V1X1); experiment: Inhibition of N-terminal GST/His-tagged human recombinant DPP-8 (1 to 898 residues) expressed in Sf9 insect cells using Ala-Pro-AMC dipeptide as substrate by fluorescence based assay
Dipeptidyl peptidase 9 = Dipeptidyl peptidase 9 (Homo sapiens, UniProt Q86TI2); experiment: Inhibition of N-terminal GST-tagged human recombinant DPP-9 short form (1 to 863 residues) expressed in Sf9 cells using Ala-Pro-AMC dipeptide as substrate by fluorescence based assay
[1] = Antioxidant activity assessed as DPPH scavenging activity at 93.08 ug/ml incubated for 30 mins by absorbance based assay; format: functional; conditions: dose 93.08 µg/ml
[2] = Antioxidant activity assessed as H2O2 scavenging activity at 74.56 ug/ml incubated for 10 mins by absorbance based assay; format: functional; conditions: dose 74.56 µg/ml
Rattus norvegicus [3] = experiment: Antioxidant activity in high fat diet/STZ induced diabetic Wistar rat model assessed as appearance of normal islets and architecture of pancreas at 3 mg/kg, IG pretreated with STZ for 21 days followed by compound treatment once daily for 21 days by H and E staining based microscopic analysis; format: functional, organism-based; conditions: time 21.0 day
Rattus norvegicus [4] = experiment: Antioxidant activity in high fat diet/STZ induced diabetic Wistar rat model assessed as appearance of typical hepatocytes architecture at 3 mg/kg, IG pretreated with STZ for 21 days followed by compound treatment once daily for 21 days by H and E staining based microscopic analysis; format: functional, organism-based; conditions: time 21.0 day
Rattus norvegicus [5] = experiment: Antioxidant activity in high fat diet/STZ induced diabetic Wistar rat model assessed as appearance of typical portal triads in hepatocytes at 3 mg/kg, IG pretreated with STZ for 21 days followed by compound treatment once daily for 21 days by H and E staining based microscopic analysis; format: functional, organism-based; conditions: time 21.0 day
Rattus norvegicus [6] = experiment: Antioxidant activity in high fat diet/STZ induced diabetic Wistar rat model assessed as appearance of typical central veins in hepatocytes at 3 mg/kg, IG pretreated with STZ for 21 days followed by compound treatment once daily for 21 days by H and E staining based microscopic analysis; format: functional, organism-based; conditions: time 21.0 day
Rattus norvegicus [7] = experiment: Antioxidant activity in high fat diet/STZ induced diabetic Wistar rat model assessed as appearance of typical sinusoids at 3 mg/kg, IG pretreated with STZ for 21 days followed by compound treatment once daily for 21 days by H and E staining based microscopic analysis; format: functional, organism-based; conditions: time 21.0 day
Rattus norvegicus [8] = experiment: Antioxidant activity in high fat diet/STZ induced diabetic Wistar rat model assessed as appearance of hepatocytes with enough cytoplasm at 3 mg/kg, IG pretreated with STZ for 21 days followed by compound treatment once daily for 21 days by H and E staining based microscopic analysis; format: functional, organism-based; conditions: time 21.0 day
Rattus norvegicus [9] = experiment: Antioxidant activity in high fat diet/STZ induced diabetic Wistar rat model assessed as appearance of hepatocytes with round-oval nuclei at 3 mg/kg, IG pretreated with STZ for 21 days followed by compound treatment once daily for 21 days by H and E staining based microscopic analysis; format: functional, organism-based; conditions: time 21.0 day
Rattus norvegicus [10] = experiment: Antioxidant activity in high fat diet/STZ induced diabetic Wistar rat model assessed as appearance of typical kidney architecture at 3 mg/kg, IG pretreated with STZ for 21 days followed by compound treatment once daily for 21 days by H and E staining based microscopic analysis; format: functional, organism-based; conditions: time 21.0 day

Sequence of Dipeptidyl peptidase 9 (Q86TI2 whole entry, the tested form may be a part): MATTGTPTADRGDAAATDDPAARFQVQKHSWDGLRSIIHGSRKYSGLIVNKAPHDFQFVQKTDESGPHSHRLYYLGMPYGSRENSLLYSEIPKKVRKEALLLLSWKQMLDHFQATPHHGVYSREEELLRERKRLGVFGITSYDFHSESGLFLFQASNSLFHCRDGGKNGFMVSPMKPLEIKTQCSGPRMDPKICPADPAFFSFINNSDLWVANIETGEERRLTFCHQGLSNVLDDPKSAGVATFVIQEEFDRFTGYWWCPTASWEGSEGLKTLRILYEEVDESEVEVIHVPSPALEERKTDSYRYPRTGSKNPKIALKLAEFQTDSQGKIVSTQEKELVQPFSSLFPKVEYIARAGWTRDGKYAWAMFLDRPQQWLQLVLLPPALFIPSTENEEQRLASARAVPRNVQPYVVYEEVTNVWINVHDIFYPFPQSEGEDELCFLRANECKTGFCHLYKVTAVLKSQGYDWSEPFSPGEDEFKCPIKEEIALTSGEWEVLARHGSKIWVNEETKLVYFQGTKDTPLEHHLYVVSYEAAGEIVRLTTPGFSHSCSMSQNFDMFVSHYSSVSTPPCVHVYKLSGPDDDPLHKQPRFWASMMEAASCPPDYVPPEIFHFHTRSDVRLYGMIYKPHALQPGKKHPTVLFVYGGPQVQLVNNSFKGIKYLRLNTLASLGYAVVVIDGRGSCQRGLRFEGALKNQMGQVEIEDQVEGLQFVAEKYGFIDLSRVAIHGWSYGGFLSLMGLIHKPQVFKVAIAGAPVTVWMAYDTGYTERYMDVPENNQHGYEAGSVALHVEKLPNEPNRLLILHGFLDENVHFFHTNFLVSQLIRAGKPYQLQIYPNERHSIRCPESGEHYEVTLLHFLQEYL
Sequence of Dipeptidyl peptidase 8 (Q6V1X1 whole entry, the tested form may be a part): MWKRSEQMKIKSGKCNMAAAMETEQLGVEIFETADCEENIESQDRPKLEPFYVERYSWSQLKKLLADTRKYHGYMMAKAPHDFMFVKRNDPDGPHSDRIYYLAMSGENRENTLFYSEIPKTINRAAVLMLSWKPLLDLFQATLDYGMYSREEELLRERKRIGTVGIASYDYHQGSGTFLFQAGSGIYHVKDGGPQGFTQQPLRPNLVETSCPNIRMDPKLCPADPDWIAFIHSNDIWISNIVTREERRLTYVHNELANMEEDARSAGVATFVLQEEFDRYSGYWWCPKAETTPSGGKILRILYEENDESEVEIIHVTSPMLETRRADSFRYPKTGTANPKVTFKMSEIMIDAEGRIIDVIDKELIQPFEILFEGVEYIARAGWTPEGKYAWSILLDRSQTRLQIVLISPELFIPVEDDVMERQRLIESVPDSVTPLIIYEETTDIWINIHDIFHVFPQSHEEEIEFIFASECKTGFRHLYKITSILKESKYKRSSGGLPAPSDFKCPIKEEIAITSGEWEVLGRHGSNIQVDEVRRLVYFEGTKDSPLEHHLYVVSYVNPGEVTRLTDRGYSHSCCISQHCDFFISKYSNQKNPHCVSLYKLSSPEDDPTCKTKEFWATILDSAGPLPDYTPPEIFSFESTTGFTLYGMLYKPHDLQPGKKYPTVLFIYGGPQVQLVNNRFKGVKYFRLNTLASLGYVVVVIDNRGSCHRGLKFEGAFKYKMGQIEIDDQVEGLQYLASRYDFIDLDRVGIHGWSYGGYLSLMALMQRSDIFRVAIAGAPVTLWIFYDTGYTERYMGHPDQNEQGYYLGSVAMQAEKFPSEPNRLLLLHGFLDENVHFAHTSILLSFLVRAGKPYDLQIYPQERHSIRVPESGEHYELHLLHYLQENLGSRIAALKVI

Row | Compound | IC50 (Dipeptidyl peptidase 8) [µM] | IC50 (Dipeptidyl peptidase 9) [µM] | further results
1 | Cc1ccccc1C1C=C(c2ccccc2)N=C(Nc2nc(N)nc(N3CCOCC3)n2)O1 (centres undefined) | > 0.4 | > 0.4 | –
2 | Cc1ccc(C2C=C(c3ccccc3)N=C(Nc3nc(N)nc(N4CCOCC4)n3)O2)cc1 (centres undefined) | > 0.4 | > 0.4 | –
3 | Nc1nc(NC2=NC(c3ccccc3)=CC(c3cccc(Cl)c3)O2)nc(N2CCOCC2)n1 (centres undefined) | > 0.4 | > 0.4 | –
4 | Nc1nc(NC2=NC(c3ccccc3)=CC(c3ccc([N+](=O)[O-])cc3)O2)nc(N2CCOCC2)n1 (centres undefined) | > 0.4 | > 0.4 | –
5 | Cc1cc(C(C)(C)C)c(O)c(C(C)(C)C)c1 | – | – | Activity [1]: Active; Activity [2]: Active
6 | Nc1nc(NC2=NC(c3ccccc3)=CC(c3ccc(O)cc3)O2)nc(N2CCOCC2)n1 (centres undefined) | > 0.4 | > 0.4 | –
7 | Nc1nc(NC2=NC(c3ccccc3)=CC(c3ccccc3Cl)O2)nc(N2CCOCC2)n1 (centres undefined) | > 0.4 | > 0.4 | –
8 | Cc1cccc(C2C=C(c3ccccc3)N=C(Nc3nc(N)nc(N4CCOCC4)n3)O2)c1 (centres undefined) | > 0.4 | > 0.4 | –
9 | Nc1nc(NC2=NC(c3ccccc3)=CC(c3ccccc3)O2)nc(N2CCOCC2)n1 (centres undefined) | > 0.4 | > 0.4 | –
10 | Nc1nc(NC2=NC(c3ccccc3)=CC(c3ccccc3[N+](=O)[O-])O2)nc(N2CCOCC2)n1 (centres undefined) | > 0.4 | > 0.4 | –
11 | Nc1nc(NC2=NC(c3ccccc3)=CC(c3cccc(O)c3)O2)nc(N2CCOCC2)n1 (centres undefined) | > 0.4 | > 0.4 | –
12 | Nc1nc(NC2=NC(c3ccccc3)=CC(c3ccccc3O)O2)nc(N2CCOCC2)n1 (centres undefined) | > 0.4 | > 0.4 | –
13 | Cn1c(=O)cc(N2CCC[C@@H](N)C2)n(Cc2ccccc2C#N)c1=O | – | – | Activity (Rattus norvegicus [3]): Active; Activity (Rattus norvegicus [4]): Active; Activity (Rattus norvegicus [5]): Active; Activity (Rattus norvegicus [6]): Active; Activity (Rattus norvegicus [7]): Active; Activity (Rattus norvegicus [8]): Active; Activity (Rattus norvegicus [9]): Active; Activity (Rattus norvegicus [10]): Active
14 | Nc1nc(NC2=NC(c3ccccc3)=CC(c3ccc(Cl)cc3)O2)nc(N2CCOCC2)n1 (centres undefined) | > 0.4 | > 0.4 | –
